Measured values: ChEMBL document CHEMBL6074661, “Structural Modification and Pharmacological Evaluation of (Thiadiazol-2-yl)pyrazines as Novel Piezo1 Agonists for the Intervention of Disuse Osteoporosis” (J Med Chem, 2024)
Values after ≈ are worked out from the molar mass of the structure shown. Active and inactive are the calls of the source. The rule behind the calls is not given here.

How the values were obtained:
[1] = biological target: T1, Piezo-type mechanosensitive ion channel component 1 (Homo sapiens, UniProt Q92508); experiment: Potency index, ratio of Yoda1 EC50 to test compound EC50 for agonist activity at Piezo1 (unknown origin); conditions: filed as agonist
[2] = biological target: Piezo-type mechanosensitive ion channel component 1 (Mus musculus) (UniProt E2JF22); experiment: Agonist activity at Piezo1 in mouse C3H 10T1/2 cells assessed as influx of calcium ions by measuring change in ratio of calcium fluorescence at 20 uM incubated for 2 hrs by Cal-bryte 520 AM dye based analysis relative to control; assay type: cell-based
[3] = biological target: T1, Piezo-type mechanosensitive ion channel component 1; experiment: Agonist activity at human Piezo1 transfected in HEK293T cells by FLIPR assay; assay type: cell-based
[4] = biological target: T2, Piezo-type mechanosensitive ion channel component 1 (Mus musculus, UniProt E2JF22); experiment: Agonist activity at Piezo1 in mouse C3H 10T1/2 cells assessed as influx of calcium ions incubated for 2 hrs by Cal-bryte 520 AM dye based analysis; assay type: cell-based
Target sequence in this assay (E2JF22 whole entry): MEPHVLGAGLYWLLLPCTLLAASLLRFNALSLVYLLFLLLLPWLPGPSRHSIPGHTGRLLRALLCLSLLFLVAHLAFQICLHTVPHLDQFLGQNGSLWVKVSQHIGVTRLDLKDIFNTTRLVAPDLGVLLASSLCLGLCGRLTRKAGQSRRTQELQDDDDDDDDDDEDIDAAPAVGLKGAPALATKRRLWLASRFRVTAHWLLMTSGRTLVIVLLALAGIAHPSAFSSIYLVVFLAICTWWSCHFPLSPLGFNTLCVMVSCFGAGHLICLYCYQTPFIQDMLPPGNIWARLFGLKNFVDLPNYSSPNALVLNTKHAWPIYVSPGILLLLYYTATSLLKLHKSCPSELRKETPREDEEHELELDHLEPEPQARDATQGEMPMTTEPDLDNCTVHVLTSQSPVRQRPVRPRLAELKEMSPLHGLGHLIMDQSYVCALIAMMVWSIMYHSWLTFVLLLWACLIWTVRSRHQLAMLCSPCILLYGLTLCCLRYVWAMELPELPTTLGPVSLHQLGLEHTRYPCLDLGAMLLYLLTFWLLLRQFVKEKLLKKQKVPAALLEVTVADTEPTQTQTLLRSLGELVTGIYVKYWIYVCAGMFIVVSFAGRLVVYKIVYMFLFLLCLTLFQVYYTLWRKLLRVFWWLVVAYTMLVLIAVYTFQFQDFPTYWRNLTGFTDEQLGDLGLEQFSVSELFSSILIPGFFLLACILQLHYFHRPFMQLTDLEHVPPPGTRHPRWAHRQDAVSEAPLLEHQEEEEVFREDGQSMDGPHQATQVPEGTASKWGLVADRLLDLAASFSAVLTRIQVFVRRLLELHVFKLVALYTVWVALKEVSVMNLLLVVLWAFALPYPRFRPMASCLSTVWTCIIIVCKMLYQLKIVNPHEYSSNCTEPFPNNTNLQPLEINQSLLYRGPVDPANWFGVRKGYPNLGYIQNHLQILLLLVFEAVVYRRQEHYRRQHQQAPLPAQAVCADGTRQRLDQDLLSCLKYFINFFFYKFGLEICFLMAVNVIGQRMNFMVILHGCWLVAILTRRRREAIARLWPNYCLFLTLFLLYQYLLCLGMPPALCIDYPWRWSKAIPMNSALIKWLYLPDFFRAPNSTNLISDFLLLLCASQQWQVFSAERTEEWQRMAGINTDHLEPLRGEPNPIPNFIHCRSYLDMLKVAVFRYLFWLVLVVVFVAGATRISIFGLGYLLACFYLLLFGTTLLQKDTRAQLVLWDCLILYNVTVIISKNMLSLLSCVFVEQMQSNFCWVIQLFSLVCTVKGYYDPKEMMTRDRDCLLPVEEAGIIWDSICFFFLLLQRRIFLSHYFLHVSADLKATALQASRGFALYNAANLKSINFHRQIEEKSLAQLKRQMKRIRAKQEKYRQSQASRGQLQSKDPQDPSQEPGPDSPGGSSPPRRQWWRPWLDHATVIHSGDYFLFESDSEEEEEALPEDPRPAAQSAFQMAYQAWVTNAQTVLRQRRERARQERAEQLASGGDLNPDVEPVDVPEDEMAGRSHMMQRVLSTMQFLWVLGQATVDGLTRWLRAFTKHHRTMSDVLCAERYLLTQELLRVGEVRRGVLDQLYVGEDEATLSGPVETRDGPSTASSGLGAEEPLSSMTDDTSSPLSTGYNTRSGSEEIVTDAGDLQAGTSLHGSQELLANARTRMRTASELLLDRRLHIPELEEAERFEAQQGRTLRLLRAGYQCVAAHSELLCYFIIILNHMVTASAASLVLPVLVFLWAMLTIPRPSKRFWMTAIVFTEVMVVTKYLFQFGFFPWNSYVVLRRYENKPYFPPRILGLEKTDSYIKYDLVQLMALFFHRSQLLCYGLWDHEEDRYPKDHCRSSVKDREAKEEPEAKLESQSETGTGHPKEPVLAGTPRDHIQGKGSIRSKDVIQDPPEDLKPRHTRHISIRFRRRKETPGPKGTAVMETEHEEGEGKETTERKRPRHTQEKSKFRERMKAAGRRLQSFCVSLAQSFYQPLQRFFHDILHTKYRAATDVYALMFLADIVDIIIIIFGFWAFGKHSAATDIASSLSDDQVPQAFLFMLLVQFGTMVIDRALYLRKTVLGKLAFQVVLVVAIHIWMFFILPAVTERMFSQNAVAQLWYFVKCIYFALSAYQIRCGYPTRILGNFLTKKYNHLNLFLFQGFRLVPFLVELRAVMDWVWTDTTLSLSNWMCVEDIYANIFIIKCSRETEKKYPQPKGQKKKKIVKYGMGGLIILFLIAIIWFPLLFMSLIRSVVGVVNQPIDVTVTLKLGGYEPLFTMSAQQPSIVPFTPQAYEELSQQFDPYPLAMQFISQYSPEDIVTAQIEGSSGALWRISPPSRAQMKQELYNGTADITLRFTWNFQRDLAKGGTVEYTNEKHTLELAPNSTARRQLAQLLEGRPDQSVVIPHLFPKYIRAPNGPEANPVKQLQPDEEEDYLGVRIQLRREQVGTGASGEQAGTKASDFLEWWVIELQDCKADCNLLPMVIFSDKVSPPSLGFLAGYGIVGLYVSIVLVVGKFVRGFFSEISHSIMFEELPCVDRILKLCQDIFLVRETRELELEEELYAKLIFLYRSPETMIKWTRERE

[5] = Metabolic stability in mouse liver microsomes assessed as half life at 10 uM measured for 60 mins by LC-MS/MS analysis; assay type: ADME, Microsome
[6] = Metabolic stability in human liver microsomes assessed as half life at 10 uM measured for 60 mins by LC-MS/MS analysis; assay type: ADME, Microsome
[7] = Metabolic stability in dog liver microsomes assessed as half life at 10 uM measured for 60 mins by LC-MS/MS analysis; assay type: ADME, Canis lupus familiaris, Microsome
[8] = Metabolic stability in mouse liver microsomes assessed as intrinsic clearance at 10 uM measured for 60 mins by LC-MS/MS analysis; assay type: ADME, Microsome; conditions: read-out: CLH
[9] = Metabolic stability in human liver microsomes assessed as intrinsic clearance at 10 uM measured for 60 mins by LC-MS/MS analysis; assay type: ADME, Microsome; conditions: read-out: CLH
[10] = Metabolic stability in dog liver microsomes assessed as intrinsic clearance at 10 uM measured for 60 mins by LC-MS/MS analysis; assay type: ADME, Canis lupus familiaris, Microsome; conditions: read-out: CLH
[11] = Aqueous solubility of compound at pH 7.4 incubated for 10 mins by HPLC analysis; assay type: physicochemical; conditions: aqueous medium
[12] = Apparent permeability in MDCK cells; assay type: ADME, cell-based, Canis lupus familiaris; conditions: dog
[13] = biological target: T2, Piezo-type mechanosensitive ion channel component 1; experiment: Agonist activity at mouse Piezo1 transfected in HEK293T cells expressing PZ1 mutant by fluorescence based assay; assay type: cell-based
Target sequence in this assay (E2JF22 whole entry, looked up): as the sequence (E2JF22 whole entry) above

[14] = Toxicity in hind-limb unloading Sprague-Dawley rat model assessed as change in liver function at 5 uM/kg, ip administered on day 1, 4, 7, 10, 13 and measured on day 14; assay type: organism-based; conditions: in vivo, 336 h, time 14 day
[15] = Toxicity in hind-limb unloading Sprague-Dawley rat model assessed as change in kidney function at 5 uM/kg, ip administered on day 1, 4, 7, 10, 13 and measured on day 14; assay type: organism-based; conditions: in vivo, 336 h, time 14 day
[16] = biological target: Piezo-type mechanosensitive ion channel component 1 (Mus musculus) (UniProt E2JF22); experiment: Potency index, ratio of Yoda1 EC50 to test compound […] for agonist activity at Piezo1 in mouse C3H 10T1/2 cells assessed as influx of calcium ions incubated for 2 hrs by Cal-bryte 520 AM dye based analysis; assay type: cell-based; conditions: filed as agonist, tested as the 2H-labelled form
[17] = system: BMSC; experiment: Induction of osteogenesis in BMSC cells (unknown origin) assessed as increase in Runx2 mRNA level incubated for 3 days by RT-qPCR analysis; assay type: functional, cell-based; conditions: dose 3-5 µM, time 3.0 day, tested as the 2H-labelled form
[18] = system: BMSC; experiment: Induction of osteogenesis in BMSC cells (unknown origin) assessed as increase in Osx mRNA level at 5 uM incubated for 3 days by RT-qPCR analysis; assay type: functional, cell-based; conditions: time 3.0 day, tested as the 2H-labelled form
[19] = biological target: Piezo-type mechanosensitive ion channel component 1 (Rattus norvegicus) (UniProt Q0KL00); experiment: Agonist activity at Piezo1 in rat BMSC cells assessed as increase in p-Erk level at 5 uM incubated for 5 mins by Western blot analysis; assay type: cell-based; conditions: filed as activator, tested as the 2H-labelled form
[20] = system: Rattus norvegicus; experiment: Inhibition of disuse osteoporosis in hind-limb unloading Sprague-Dawley rat model assessed as increase in bone volume fraction at 5 uM/kg, ip administered on day 1, 4, 7, 10, 13 and measured on day 14 by micro-CT analysis; assay type: functional, organism-based; conditions: time 14.0 day, tested as the 2H-labelled form
[21] = system: Rattus norvegicus; experiment: Inhibition of disuse osteoporosis in hind-limb unloading Sprague-Dawley rat model assessed as increase in trabecular number at 5 uM/kg, ip administered on day 1, 4, 7, 10, 13 and measured on day 14 by micro-CT analysis; assay type: functional, organism-based; conditions: time 14.0 day, tested as the 2H-labelled form
[22] = system: Rattus norvegicus; experiment: Inhibition of disuse osteoporosis in hind-limb unloading Sprague-Dawley rat model assessed as decrease in trabecular separation at 5 uM/kg, ip administered on day 1, 4, 7, 10, 13 and measured on day 14 by micro-CT analysis; assay type: functional, organism-based; conditions: time 14.0 day, tested as the 2H-labelled form
[23] = system: Rattus norvegicus; experiment: Induction of osteogenesis in hind-limb unloading Sprague-Dawley rat model assessed as increase in ALP fluorescent area at 5 uM/kg, ip administered on day 1, 4, 7, 10, 13 and measured on day 14 by immunofluorescence based analysis; assay type: functional, organism-based; conditions: time 14.0 day, tested as the 2H-labelled form

Chain of Piezo-type mechanosensitive ion channel component 1 (Mus musculus) (E2JF22 whole entry): as above
T1 sequence (Q92508 whole entry): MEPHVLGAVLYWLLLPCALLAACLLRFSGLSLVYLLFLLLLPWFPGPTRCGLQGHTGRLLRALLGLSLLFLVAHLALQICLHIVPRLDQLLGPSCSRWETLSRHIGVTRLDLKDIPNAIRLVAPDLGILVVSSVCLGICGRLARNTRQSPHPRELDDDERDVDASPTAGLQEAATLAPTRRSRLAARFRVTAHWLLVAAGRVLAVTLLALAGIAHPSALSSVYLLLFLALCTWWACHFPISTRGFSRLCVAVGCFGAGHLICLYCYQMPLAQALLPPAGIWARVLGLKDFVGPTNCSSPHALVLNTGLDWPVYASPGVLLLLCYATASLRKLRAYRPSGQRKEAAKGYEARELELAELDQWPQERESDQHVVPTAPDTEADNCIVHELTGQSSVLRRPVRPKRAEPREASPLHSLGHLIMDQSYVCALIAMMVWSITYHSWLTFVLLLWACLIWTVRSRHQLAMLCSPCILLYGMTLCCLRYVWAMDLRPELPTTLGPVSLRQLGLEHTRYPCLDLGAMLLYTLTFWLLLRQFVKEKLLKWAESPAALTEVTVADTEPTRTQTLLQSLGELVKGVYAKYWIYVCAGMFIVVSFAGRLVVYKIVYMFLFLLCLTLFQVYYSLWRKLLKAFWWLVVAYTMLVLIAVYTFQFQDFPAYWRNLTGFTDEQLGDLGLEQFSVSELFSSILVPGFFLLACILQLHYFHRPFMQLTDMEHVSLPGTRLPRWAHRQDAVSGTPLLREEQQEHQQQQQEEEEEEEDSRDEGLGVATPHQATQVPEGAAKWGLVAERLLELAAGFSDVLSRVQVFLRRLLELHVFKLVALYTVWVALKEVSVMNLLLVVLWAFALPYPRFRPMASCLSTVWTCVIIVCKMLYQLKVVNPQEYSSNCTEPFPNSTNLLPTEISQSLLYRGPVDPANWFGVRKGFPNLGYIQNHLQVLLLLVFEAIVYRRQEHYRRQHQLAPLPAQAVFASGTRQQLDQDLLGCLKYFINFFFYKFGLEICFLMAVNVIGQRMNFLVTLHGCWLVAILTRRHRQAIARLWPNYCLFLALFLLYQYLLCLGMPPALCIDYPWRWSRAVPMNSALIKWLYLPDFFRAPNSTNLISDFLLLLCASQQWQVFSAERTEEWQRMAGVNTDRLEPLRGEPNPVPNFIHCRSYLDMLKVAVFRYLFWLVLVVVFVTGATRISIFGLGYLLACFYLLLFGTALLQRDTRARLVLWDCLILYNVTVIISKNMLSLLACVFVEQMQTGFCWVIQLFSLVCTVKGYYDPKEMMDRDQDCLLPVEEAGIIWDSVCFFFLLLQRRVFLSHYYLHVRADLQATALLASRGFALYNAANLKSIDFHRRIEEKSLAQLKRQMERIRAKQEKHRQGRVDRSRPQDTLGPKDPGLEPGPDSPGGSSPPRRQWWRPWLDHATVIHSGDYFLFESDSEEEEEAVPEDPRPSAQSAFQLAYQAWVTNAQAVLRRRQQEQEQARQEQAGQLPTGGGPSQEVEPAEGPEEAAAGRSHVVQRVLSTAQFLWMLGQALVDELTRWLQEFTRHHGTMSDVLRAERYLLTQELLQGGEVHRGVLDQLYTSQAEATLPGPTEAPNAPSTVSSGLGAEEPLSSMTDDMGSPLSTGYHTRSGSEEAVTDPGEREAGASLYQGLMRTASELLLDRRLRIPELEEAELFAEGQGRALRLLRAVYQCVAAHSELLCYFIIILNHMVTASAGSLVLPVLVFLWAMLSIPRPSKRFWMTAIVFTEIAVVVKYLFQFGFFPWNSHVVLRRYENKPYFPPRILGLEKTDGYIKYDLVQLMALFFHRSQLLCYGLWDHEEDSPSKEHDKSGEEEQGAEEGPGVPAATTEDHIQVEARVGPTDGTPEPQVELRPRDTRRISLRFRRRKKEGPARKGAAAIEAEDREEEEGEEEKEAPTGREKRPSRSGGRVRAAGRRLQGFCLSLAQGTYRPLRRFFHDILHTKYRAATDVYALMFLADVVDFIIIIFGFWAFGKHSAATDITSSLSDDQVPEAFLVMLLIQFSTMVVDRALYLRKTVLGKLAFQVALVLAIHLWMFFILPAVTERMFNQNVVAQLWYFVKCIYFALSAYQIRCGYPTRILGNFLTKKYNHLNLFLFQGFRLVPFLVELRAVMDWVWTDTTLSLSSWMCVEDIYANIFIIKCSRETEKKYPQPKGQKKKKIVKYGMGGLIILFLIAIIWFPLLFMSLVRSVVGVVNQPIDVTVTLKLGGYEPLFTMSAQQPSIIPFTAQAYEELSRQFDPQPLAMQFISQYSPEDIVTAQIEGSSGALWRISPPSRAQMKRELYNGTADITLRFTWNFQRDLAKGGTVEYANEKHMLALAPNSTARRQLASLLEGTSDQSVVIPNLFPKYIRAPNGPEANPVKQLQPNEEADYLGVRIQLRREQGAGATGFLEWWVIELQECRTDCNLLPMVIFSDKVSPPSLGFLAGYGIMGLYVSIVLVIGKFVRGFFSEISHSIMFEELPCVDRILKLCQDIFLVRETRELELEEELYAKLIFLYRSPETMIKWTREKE

| SMILES | Percent change in calcium fluorescence ratio relative to control [2] [%] | Percent change in calcium fluorescence ratio relative to control ([2]; filed as agonist) [%] | other results |
| --- | --- | --- | --- |
| O=C(O)c1ccc(-c2nnc(SCc3c(Cl)cccc3Cl)s2)cc1 |  |  | Ratio EC50 [1]: 4 |
| CC1(O)CN(c2cnc(-c3nnc(SCc4c(Cl)cccc4Cl)s3)cn2)C1 | 16.1 |  |  |
| O[C@@H]1CN(c2cnc(-c3nnc(SCc4c(Cl)cccc4Cl)s3)cn2)C[C@@H]1O |  | 74.5 |  |
| C[C@@H](O)CNc1cnc(-c2nnc(SC(c3c(Cl)cccc3Cl)C3CC3)s2)cn1 (stereo partly drawn) |  | 64.6 |  |
| O[C@H]1CCN(c2cnc(-c3nnc(SCc4c(Cl)cccc4Cl)s3)cn2)C1 | 30.4 |  |  |
| CC(C)(O)[C@H](F)CNc1cnc(-c2nnc(SCc3c(Cl)cccc3Cl)s2)cn1 |  | 45.4 |  |
| OCCCNc1cnc(-c2nnc(SCc3c(Cl)cccc3Cl)s2)cn1 |  | 65.2 |  |
| Clc1cccc(Cl)c1CSc1nnc(-c2cnc(N3CC4(COC4)C3)cn2)s1 | 0.1 |  |  |
| FC(F)(F)c1cccc(Cl)c1CSc1nnc(-c2cnccn2)o1 |  |  | Ratio EC50 [1]: 1.25 |
| Clc1cccc(Cl)c1CSc1nnc(-c2cnccn2)s1 | 30.7 |  | EC50 [3]: 17.1 µM; EC50 [4]: 2.21 µM; half-life at 10 µM [5]: < 5 min; half-life at 10 µM [6]: 5.55 min; half-life at 10 µM [7]: 1.33 min; microsomal CLint at 10 µM [8]: > 277 µL/min/mg; microsomal CLint at 10 µM [9]: 250 µL/min/mg; microsomal CLint at 10 µM [10]: 1040 µL/min/mg; solubility at 10 min [11]: 3.9 µM (≈ 1.39 µg/mL); Papp [12]: 38 ×10⁻⁶ cm/s |
| CCC(Sc1nnc(-c2cnc(NC[C@@H](C)O)cn2)s1)c1c(Cl)cccc1Cl (stereo partly drawn) |  | 91.3 |  |
| OCCOCCNc1cnc(-c2nnc(SCc3c(Cl)cccc3Cl)s2)cn1 |  | 56.3 |  |
| O=C1CC2(CCN(c3cnc(-c4nnc(SCc5c(Cl)cccc5Cl)s4)cn3)CC2)CN1 |  | 77.3 |  |
| O=C1CC2(CCN(c3cnc(-c4nnc(SCc5ccc6scnc6c5)s4)cn3)CC2)CN1 | 7.7 |  |  |
| Clc1cccc(Cl)c1CSc1nnc(-c2cnc(Br)cn2)s1 | 8 |  |  |
| C[C@@H](O)CNc1cnc(-c2nnc(SCc3ccc4nnn(C)c4c3)s2)cn1 | 35.4 |  |  |
| OC1CCN(c2cnc(-c3nnc(SCc4c(Cl)cccc4Cl)s3)cn2)CC1 | 2 |  |  |
| CC(Sc1nnc(-c2cnc(NC[C@@H](C)O)cn2)s1)c1c(Cl)cccc1Cl (stereo partly drawn) |  | 164 |  |
| Cn1nnc2ccc(CSc3nnc(-c4cnc(N5CCC6(CC5)CNC(=O)C6)cn4)s3)cc21 | 38.8 |  |  |
| NC1=NC(=O)[C@H](CC(=O)Nc2ccc(SC(F)F)cc2)S1 |  |  | EC50 [13]: 12.9 µM |

| SMILES | Percent change in calcium fluorescence ratio relative to control [2] [%] | Percent change in calcium fluorescence ratio relative to control ([2]; filed as agonist) [%] | other results |
| --- | --- | --- | --- |
| C[C@@H](O)CNc1cnc(-c2nnc(SCc3ccc4ncoc4c3)s2)cn1 |  | 50.4 |  |
| O=C1CC2(CCN(c3cnc(-c4nnc(SCc5ccc6ncoc6c5)s4)cn3)CC2)CN1 | 31.2 |  |  |
| C[C@H](O)CNc1cnc(-c2nnc(SCc3c(Cl)cccc3Cl)s2)cn1 |  | 76.6 |  |
| C[C@@H](O)CNc1cnc(-c2nnc(SCc3ccc4scnc4c3)s2)cn1 | 15.4 |  |  |
| FC1(F)CN(c2cnc(-c3nnc(SCc4c(Cl)cccc4Cl)s3)cn2)C1 | -8 |  |  |
| C[C@@H](O)CNc1cnc(-c2nnc(SCc3c(F)cccc3F)s2)cn1 | 21 |  |  |
| C[C@@H](O)CNc1cnc(-c2nnc(SCc3ccc4c(cnn4C)c3)s2)cn1 |  | 73.5 |  |
| C[C@@H](O)CNc1ccc(-c2nnc(SCc3c(Cl)cccc3Cl)s2)nn1 |  | 71.3 |  |
| C[C@@H](O)CNc1ncc(-c2nnc(SCc3c(Cl)cccc3Cl)s2)cn1 |  | 41.7 |  |
| C[C@@H](O)CNc1cnc(-c2nnc(SCc3c(Cl)ccc(F)c3Cl)s2)cn1 |  | 91.4 |  |
| OCC1CN(c2cnc(-c3nnc(SCc4c(Cl)cccc4Cl)s3)cn2)C1 | 11.6 |  |  |
| OC1CN(c2cnc(-c3nnc(SCc4c(Cl)cccc4Cl)s3)cn2)C1 | 36 |  |  |
| C[C@@H](O)CNc1cnc(-c2nnc(SCc3ccccc3Cl)s2)cn1 |  | 61.9 |  |
| C[C@@H](O)CNc1cncc(-c2nnc(SCc3c(Cl)cccc3Cl)s2)n1 |  | 49.7 |  |
| Cc1nnc(CNC(=O)Nc2ccc(C3CCCCC3)cc2)o1 |  |  | EC50 [13]: > 150 µM |
| [2H]C([2H])(Sc1nnc(-c2cnc(NC[C@@H](C)O)cn2)s1)c1c(Cl)cccc1Cl |  |  | EC50 [4]: 44.2 µM; half-life at 10 µM [5]: 15.7 min; half-life at 10 µM [6]: 16.7 min; half-life at 10 µM [7]: 25.5 min; microsomal CLint at 10 µM [8]: 88.4 µL/min/mg; microsomal CLint at 10 µM [9]: 83.2 µL/min/mg; microsomal CLint at 10 µM [10]: 54.4 µL/min/mg; solubility at 10 min [11]: 57.9 µM (≈ 24.9 µg/mL); Papp [12]: 21 ×10⁻⁶ cm/s; Activity [14]: Non-toxic; Activity [15]: Non-toxic |
| C[C@@H](O)CNc1cnc(-c2nnc(SCc3c(Cl)ccnc3Cl)s2)cn1 |  | 69.7 |  |
| Cn1ncc2cc(CSc3nnc(-c4cnc(N5CCC6(CC5)CNC(=O)C6)cn4)s3)ccc21 |  | 71.6 |  |
| C[C@@H](O)CNc1cnc(-c2nnc(SCc3c(Cl)cccc3Cl)s2)cn1 |  | 106 | Percent change in calcium fluorescence ratio relative to control ([2]; filed as agonist, tested as the 2H-labelled form): 170%; Ratio EC50 [16]: 20; Activity [17]: Dose-dependent-effect; Activity [18]: Active; Activity [19]: Active; The Result Indicates That Compound Emulates Mechanical Stimulation To Activate Piezo1; Activity [20]: Active; Activity [21]: Active; Activity [22]: Active; Activity [23]: Active; Activty Reached Almost That Of The Weight-Bearing |
